Here are results for 4 molecules from US20160375039A1, “COMPOUNDS FOR THE TREATMENT OF OBESITY AND METHODS OF USE THEREOF” (The Children's Medical Center Corporation, priority 2013, published 2016).

Entries after “also recorded” stand apart in the source; their conditions may differ.

The conditions of series [1]: weight loss product rating; cited from earlier work.
The next series deals with lean mice. Description: Leptin sensitivity: overnight food intake after acute Withaferin A and leptin injection, lean mice. In kind it is in vivo, mouse. As for the experimental part: (§1) Therefore is it possible that Withaferin A exerts the anti-obesity effects through increasing the leptin sensitivity in the brains of the HFD-fed obese mice. To test this hypothesis, leptin was administered to Withaferin A or vehicle treated HFD-fed obese animals. To avoid any possible leptin sensitizing effect of weight loss or decreased food intake created by Withaferin A administration, leptin injections were carried out upon acute Withaferin A treatment. Lean and HFD-fed obese mice were divided into four groups: 1) DMSO+saline, 2) DMSO+leptin, 3) Withaferin A+saline, and 4) Withaferin A+leptin (n=6 per group). The mice were injected (i.p.) with 1.5 mg/kg Withaferin A or vehicle (DMSO) one hour before dark cycle (day zero). 24 hours later, the second and final injection of DMSO or Withaferin A was administered. 30 minutes prior to dark cycle, mice received a single i.p. injection of leptin (1 mg/kg for HFD mice, dissolved in saline; 5 mg/kg for lean mice), or saline. Over night food intakes were recorded (HFD, FIG. 4A; Chow FIG. 4B). […] In addition, HFD-fed obese mice were resistant to the food intake reducing effect of leptin unless they received Withaferin A (FIG. 4A).

Another series deals with HFD-fed mice. Description: Body composition by Dual-Emission X-ray Absorptiometry (DEXA). The format is in vivo, mouse. As to conditions: i.p. 2 mg/kg, two weeks. Here is the method:
To analyze the change in body composition during Withaferin A treatment (i.p. 2 mg/kg), lean mass and fat mass of mice with Dual-Emission X-ray Absorptiometry (DEXA) were measured.

The subject of series [2] is 10-week old lean mice on chow diet. Description: Withaferin A i.p. to lean mice on chow diet for three weeks. The format is in vivo, mouse. As to conditions: 2 mg/kg i.p. As for the experimental part:
Withaferin A was administered to 10-week old lean mice on chow diet at 2 mg/kg for three weeks by i.p. injections.

In series [3] the test system is HFD-fed obese C57Bl/6J mice. Description: Withaferin A daily i.p. to HFD-fed obese mice for three weeks: body weight, food intake, fasting blood glucose. The format is in vivo, mouse. Here is the method: To investigate whether Withaferin A can act as an anti-obesity drug by increasing leptin sensitivity and reducing appetite, C57Bl/6J mice were placed on a high fat diet (HFD; Research Diets, D12451, 45 kcal % fat) feeding for 16 weeks. After establishment of obesity and leptin resistance, mice were administered Withaferin A (at 2 mg/kg, in 25 μl DMSO, once per day) and vehicle (DMSO, 25 n1) with intraperitoneal (i.p.) injection. The animals had free access to food and water unless otherwise stated. In all experiments, three days prior to drug administration, the animals went through an acclimation period where they were given DMSO (25 n1) to reduce the effect of stress created by i.p. injection.
Following three days acclimation, mice were administered Withaferin A daily i.p. injections at 2 mg/kg for three weeks in 25 μl of DMSO as vehicle, whereas the control group received the same volume of DMSO. […] At day 21 of the experiment, the 6-hour fasting blood glucose of mice was measured.

Series [4] deals with HFD-fed obese mice. Description: Insulin Tolerance Test (ITT). In kind it is in vivo, mouse. As to conditions: 2 mg/kg i.p., day 16, insulin 1 IU/kg i.p. Here is the method:
(§2) In order to analyze the effect of Withaferin A on glucose homeostasis, we performed Glucose Tolerance Test (GTT) and Insulin Tolerance Test (ITT) after chronic i.p. Withaferin A treatment (2 mg/kg). For GTT, mice were fasted overnight following one week of Withaferin A treatment and received an i.p. injection of D-glucose (1 g/kg) in the morning. For ITT, after 16 days of Withaferin A treatment, mice were fasted for 6 hours (from 8 a.m. to 2 p.m.) and recombinant human insulin (1 IU/kg from Eli Lilly) was injected intraperitoneally. In both procedures, blood glucose was measured from tail vein blood at 0, 15, 30, 60, 90 and 120 minutes after injection.

Series [5] deals with HFD-fed obese mice. Description: Glucose Tolerance Test (GTT). As to conditions: 2 mg/kg i.p., one week, D-glucose 1 g/kg i.p., vs vehicle. The format is in vivo, mouse. As for the experimental part: as §2
Series [6] relates to HFD-fed obese mice. Description: Leptin sensitivity: overnight food intake after acute Withaferin A and leptin injection, HFD-fed obese mice. In kind it is in vivo, mouse. Here is the method:
as §1

Series [7] has as its system leptin receptor deficient (db/db) mice. Description: Withaferin A to leptin receptor deficient (db/db) mouse model of obesity. The format is in vivo. As to conditions: 2 mg/kg once a day. As for the experimental part: To explore whether Withaferin A's effect is leptin dependent, Withaferin A (2 mg/kg, once a day, in 2Sμ1 DMSO) was administered to leptin receptor deficient (db/db) mouse model of obesity.

For `[Cr]` [Chromium], in [1], the Safety result is “Likely safe”.
As to `CC1=C(CO)C(=O)O[C@@H]([C@@H](C)[C@H]2CC[C@H]3[C@@H]4C[C@H]5O[C@]56[C@@H](O)C=CC(=O)[C@]6(C)[C@H]4CC[C@]23C)C1` [Withaferin A], the “decrease in food intake upon leptin injection” value in the series with lean mice (lean mice, Withaferin A 1.5 mg/kg i.p. + leptin 5 mg/kg i.p., compared to vehicle treated non-leptin group) was “approximately 50%”; in the series with HFD-fed obese mice [6] (HFD-fed obese mice, Withaferin A 1.5 mg/kg i.p. + leptin 1 mg/kg i.p., compared to vehicle treated non-leptin group) it was 75%. Further, the “anorectic action of leptin” value in the series with lean mice (lean mice, Withaferin A 1.5 mg/kg i.p. before leptin 5 mg/kg) is “significantly potentiated”; in the series with HFD-fed obese mice [6] (HFD mice, Withaferin A 1.5 mg/kg i.p. before leptin 1 mg/kg) it was “significantly potentiated”. The overnight food intake result in the series on lean mice (lean mice, Withaferin A 1.5 mg/kg i.p. two injections, without leptin) is given as “did not change”; in the series on HFD-fed obese mice [6] (HFD-fed obese mice, Withaferin A 1.5 mg/kg i.p. alone, no exogenous leptin), “decreased the food intake”. The fat percentage entry with HFD-fed mice is “decreased significantly”. Moreover, the lean mass entry in the series with HFD-fed mice is listed as “did not change”. Moreover, the blood glucose levels result is “not altered” in series [2] (after 3 weeks of treatment) and “tendency to decrease but did not reach statistically significant levels” in [7] (end of 3-week treatment). The body weight result in [2] (three weeks) is “failed to induce bodyweight loss”; in series [3] (2 mg/kg i.p. once per day, three weeks, vs DMSO vehicle), “significantly decreased”; in series [7], “continued to increase similar to the vehicle treated group”. The food intake result in series [2] (three weeks) is “failed to induce bodyweight loss or suppress food intake”; in series [3] (2 mg/kg i.p. daily, three days average within first week) it was “significantly decreased”; in series [7], “did not show a decrease”. Moreover, the “6-hour fasting blood glucose” value in [3] (2 mg/kg i.p. daily, day 21, 2 mg/kg) was “decreases blood glucose; also recorded: robust decrease”. Besides, the “insulin sensitivity (ITT)” value with HFD-fed obese mice [4] was “improved insulin sensitivity”. In addition, the “glucose homeostasis (AUC of GTT)” value with HFD-fed obese mice [5] is given as “significantly improved”.
In the case of Conjugated linoleic acid, in [1], the Effectiveness result is given as “Possibly” and the Safety result is recorded as “Possibly safe”.
Regarding “leptin: peptide hormone, afferent signal in a negative feedback loop regulating food intake and body weight”, in the series with lean mice (vehicle treated lean mice, leptin 5 mg/kg single i.p. injection), the overnight food intake entry is on record as “suppressed food intake”. Moreover, the “food intake reducing effect of leptin” value with HFD-fed obese mice [6] (HFD-fed obese mice without Withaferin A, leptin 1 mg/kg single i.p. injection) is reported as “resistant”.
